The record followed here is publication PMC12396291, “DNA-encoded library screening uncovers potent DNMT2 inhibitors targeting a cryptic allosteric binding site” (iScience, 2025).

Entries after “also recorded” stand apart in the source; their conditions may differ.

The target of series [1] is T1, DNMT2 (Homo sapiens, UniProt O14717).
T1 construct: Recombinant human DNMT2 (full-length); His-tag; made in house; host or cells: E. coli
T1 sequence (O14717 1-391): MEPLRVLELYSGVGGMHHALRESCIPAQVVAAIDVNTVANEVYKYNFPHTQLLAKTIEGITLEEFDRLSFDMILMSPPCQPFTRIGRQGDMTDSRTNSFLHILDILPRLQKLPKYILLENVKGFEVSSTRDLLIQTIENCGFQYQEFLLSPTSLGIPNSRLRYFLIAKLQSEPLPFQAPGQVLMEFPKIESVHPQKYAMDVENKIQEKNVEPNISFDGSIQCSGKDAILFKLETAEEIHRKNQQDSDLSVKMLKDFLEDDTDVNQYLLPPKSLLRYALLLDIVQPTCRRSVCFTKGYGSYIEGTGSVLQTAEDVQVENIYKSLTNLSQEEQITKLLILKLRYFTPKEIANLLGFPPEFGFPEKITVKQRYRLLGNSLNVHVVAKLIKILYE
The series is described as follows: ^3H-based methyltransferase enzyme activity assay (^3H-SAM incorporation into tRNA^Asp). It is filed as biochemical.
Method: Enzymatic DNMT2 inhibition assays were carried out in 100 mM Tris-HCl, pH 8.0, 100 mM NH4OAc, 0.1 mM EDTA, 10 mM MgCl2, and 10 mM DTT as described previously.[3]^,[4] First, the tRNA^Asp substrate was heated to 75 °C for 5 min and cooled down to room temperature (RT) before it was added to the reaction mixture to a final concentration of 5 μM. The reaction mixture contained 250 nM DNMT2 and the ligand compounds at variable concentrations (5% DMSO). Enzymatic reactions were started by the addition of 0.9 μM SAM as a mixture of ^3H-SAM (Hartmann Analytics) resp. cold SAM (NEB) to a final activity of 0.025 μCi μL^−1. Enzyme assays were carried out for 30 min at 37 °C. As a negative control served the reaction mixture without DNMT2 and as a positive control the reaction mixture without test compound. After 30 min, aliquots of 8 μL were taken from the reaction mixture and spotted on Whatman glass microfiber filters (GF/C, 25 mm). The RNA was precipitated on the filters with 5% ice-cold TCA for 15 min. […] Scintillation was measured with a scintillation counter (TriCarb Liquid Scintillation Analyzer 4810 TR; measurement time of 1 min). For IC50-value determination, compounds were analyzed at a minimum of six different concentrations in triplicates. IC50-values were calculated, evaluated, and plotted in GraphPad Prism 8.0.1.

Series [2] deals with T1, DNMT2. Put plainly: MST displacement assay with fluorescent FTAD probe. It is filed as binding. The conditions noted are these: for Fnorm (% displ.): FTAD displacement / Fnorm (MST screening): ligand 100 μM, FTAD probe. On the set-up: Fnorm (MST screening): unit not given here. On the procedure: Screening for ligand binding and evaluation of dose-response affinity profiles was performed via microscale thermophoresis (MST) as described previously.[42] The measurements were conducted with a Nanotemper Technologies Monolith NT.115 device. All samples were measured in Monolith standard capillaries at 25 °C. The acquisition mode was set to “Nano-Blue” with an excitation power of 30% and a medium MST power, while the system was controlled using the software MO.Control (version 1.6.1) and for evaluation MO.Affinity Analysis (version 2.3) was used. The samples contained 2 μM DNMT2, 100 nM FTAD (5-FAM-triazolyl-adenosyl-Dab) probe, and 1.3% DMSO in MST buffer (50 mM HEPES, 150 mM NaCl, 1 mM dithiothreitol (DTT), 0.1% PEG-8000, 0.05% polysorbate-20, pH 7.4).[42] All compounds were employed at a final concentration of 100 μM for the initial ligand screening.

Series [3] concerns the target T1, DNMT2. The series is described as follows: Isothermal titration calorimetry (ITC), direct titration. It is filed as binding. Particulars: direct titration at 25 °C; n.b. = no enthalpy signal observable. On the procedure:
The DNMT2 protein was purified via size exclusion chromatography eluting in isothermal titration calorimetry (ITC) buffer (50 mM sodium phosphate pH 8.0, 300 mM NaCl, 1 mM EDTA, 2 mM β-mercaptoethanol, 0.1% polysorbate-20) and directly used for measurements.[3] All compounds were dissolved in DMSO to a concentration of 5 mM and were then diluted in ITC buffer to a final concentration of 500 μM. DNMT2 was diluted to a final concentration of 50 μM with 10% DMSO to match the ligand stocks' DMSO concentration. For the ITC measurements, a MicroCal PEAQ-ITC Automated workstation (Malvern Panalytical) with a 200 μL Hastelloy cell and an injection syringe volume of 40 μL was used. All experiments were performed in triplicates at 25 °C unless otherwise noted. For each measurement, 19 compound injections (2 μL each) with an injection speed of 0.5 μL/s were added to the reaction cell containing DNMT2. The spacing time between sequential injections was 300 s, and the stirring speed was set to 750 rpm with a reference power of 42 μW. As control experiments, ligands were titrated into ITC buffer. Data analysis and fitting were carried out using the MicroCal PEAQ-ITC Analysis Software 1.21 and plotted in GraphPad Prism 8.0.1.

For series [4], the target named is T1, DNMT2. The series is described as follows: MST with DEL hit-derived fluorescent tracers 6-8, DNMT2 varied. Particulars: probe 100 nM instead of FTAD, read-out: probe binding affinity (MST, apparent KD).
A short description of series [5]: Parallel artificial membrane permeation assay (PAMPA). It counts as in vitro ADME. The conditions noted are these: 7 h incubation, duplicates. On the procedure: To determine the passive permeability of selected DNMT2 ligands, a parallel artificial membrane permeation assay (PAMPA) was performed as described previously.[68] The experiment was performed in duplicates with Sigma-Aldrich MAIPNTR10 donor plates with 5 μL of an artificial membrane (1% w/v L-α-phosphatidylcholine in n-dodecane) per well. After incubation for 7 h, the acceptor solutions were evaluated by LC/MS (HP Agilent 1100 Series). The peak areas in the UV chromatogram (λ = 210 nm) were used to calculate the areas under the curve (AUCs).
(The PAMPA barrier holds no transporters, so it reflects passive diffusion.)

The test system of series [6] is tRNA modifications (m^5C) in MOLM-13 cells. Put plainly: LC-MS/MS tRNA modification analysis of treated cells. It is filed as cell-based, human. The conditions noted are these: 72 h; for m^5C reduction in tRNA: relative to DMSO.
The test system of series [7] is MOLM-13, Huh-7 and MDA-MB-231 cells. The series is described as follows: Cell viability assay, pre-cultivation with compound then doxorubicin. It counts as cell-based, human. Particulars: for susceptibility to subsequent doxorubicin treatment (synergy): compound 50 μM, then doxorubicin. On the procedure: Cell viability assays were conducted with MOLM-13 cells, Huh-7, MDA-MB-231, HEK293, and HCT MTase mutant cell lines (WT, knock-down DNMT2, and knock-down NSUN2) to investigate the DNMT2 inhibiting compounds’ cellular effect. Cells were cultured according to standard protocols: MOLM-13 (RPMI, 10% FBS, 1x Penicillin/Streptomycin, 37 °C, 5% CO2), Huh-7/MDA-MB-231/HEK293 (DMEM, 10% FBS, 1x Penicillin/Streptomycin, 37 °C, 5% CO2) and HCT (McCoys’s 5A Medium, 10% FBS, L-Glutamine, 1x Penicillin/Streptomycin, 37 °C, 5% CO2). Cell viability was assessed using Promega Cell Titer Glo assay kit (MOLM-13, Huh-7, MDA-MB-231, HEK293) or Lonza ViaLight Plus Cell Proliferation and Cytotoxicity BioAssay Kit (HCT cell lines). […] Then, the cell titer reagent was added to each well according to the manufacturer’s protocols, and luminescence was measured using a Tecan Spark 10M plate reader (MOLM-13, Huh-7, MDA-MB-231, HEK293) or Molecular Devices FlexStation (HCT cell lines).

Series [8] has as its target T1, DNMT2. The series is described as follows: Fluorescence polarization (FP) assay with probe 6. It is filed as binding. Particulars: SAH 100 μM or tRNA^Asp 10 μM added to DNMT2 2 μM. On the procedure:
Fluorescence polarization (FP) measurements with RNA MTases and small-molecule fluorescent tracers were conducted in black Greiner 96-well half-area plates using a Tecan Spark 10M plate reader as described previously.[44] The reader was equipped with polarization filters coupled to a monochromator setup (λex = 480 nm, λem = 530 nm). For selectivity screening, reaction mixtures contained varying concentrations of recombinant enzyme (DNMT1, DNMT2, DNMT3A/3L, NSUN2, NSUN3, or NSUN6; preparation see below) and 10 nM DEL hit-derived probe 6 in MST buffer. For displacement experiments, 100 μM SAH or 10 μM tRNA^Asp were added from buffered stock solutions to the DNMT2-containing mixtures. All measurements were performed as triplicates. Polarization values (in mP) were calculated from polarization-specific parallel and orthogonal fluorescence intensities according to the Tecan in-built calculation routine. KD-values were calculated and plotted in GraphPad Prism 8.0.1.

Regarding `CNC(=O)C(NC(=O)C(Cc1c[nH]c2cc(Cl)ccc12)NC(=O)C(CO)NCC(C)Cc1ccc2c(c1)OCO2)C1CCCCC1` (stereo not shown) [Compound 4], the IC50 (usually the midpoint of a concentration-inhibition curve) against DNMT2 [1] was 44.4 ± 12.9 µM. On DNMT2 [2] (DEL hits, result in words), the “FTAD displacement in the MST assay” value is “did not lead to FTAD displacement”. The Kd on DNMT2 [2] (FTAD probe 100 nM, 2 μM DNMT2, n.b. = no thermophoresis shift observable) was found to be 105 ± 9 µM. In addition, the “ITC (KD)” value at DNMT2 [3] is “n.b”.
Consider `Cc1cccc(N(C)c2nc(N[C@H](C(=O)NCCCCCCNC(=O)CCCCC[N+]3=C(/C=C/C=C/C=C4/N(C)c5ccccc5C4(C)C)C(C)(C)c4ccccc43)[C@@H](C)OC(C)(C)C)nc(N3CCN(c4c(C)cccc4C)CC3)n2)c1` [Compound 7], for which, at DNMT2 [4], the Kd amounted to 1.36 µM.
In the case of `CCc1ccc(C(=O)NCC2(C(=O)N[C@H](CC(=O)NCC(=O)NCCCCCCNC(=O)c3ccc(-c4c5ccc(=[N+](C)C)cc-5oc5cc(N(C)C)ccc45)c(C(=O)O)c3)Cc3c[nH]c4ccccc34)CC2)cc1` [Compound 8], the Kd at DNMT2 [4] stood at 0.7 µM.
As for `CCc1ccc(C(=O)NCC2(C(=O)N[C@@H](CC(=O)NCC(N)=O)Cc3c[nH]c4ccccc34)CC2)cc1` [Compound 10], at DNMT2 [2], the “Fnorm (% displ.): FTAD displacement” value turned out to be 40% and the “Fnorm (MST screening)” value amounted to 903.3. For the same compound, the “Papp (PAMPA)” value in series [5] was “failed to pass through the artificial membrane; also recorded: below detection limit”.
With `CCc1ccc(C(=O)NCC2(C(=O)N[C@@H](CC(=O)NCC(N)=O)Cc3ccccc3)CC2)cc1` [Compound 14], the “Papp (PAMPA)” value in series [5] is on record as “failed to pass through the artificial membrane; also recorded: below detection limit”.
On to `CCc1ccc(C(=O)NCC2(C(=O)NC(CC(=O)NCC(N)=O)Cc3ccc(Cl)cc3)CC2)cc1` (stereo not shown) [Compound 16], for which the “Papp (PAMPA)” value in series [5] was ~ 0.30 10^−6 cm/s. In addition, the apparent permeability coefficient (Papp) (in general, a coefficient for how fast a substance crosses the barrier) at 7 h in series [5] (PAMPA) worked out at 0.3 ×10⁻⁶ cm/s. Further, the “change in RNA modifications” value in series [6] (MOLM-13, 5 μM) is recorded as “too low to stimulate any significant change in RNA modifications”. Moreover, in series [6] (MOLM-13, 50 μM), the “changes of other (non-m^5C) tRNA modifications” value was “only minor other modification changes were observed” and the “m^5C reduction in tRNA” value is reported as roughly 25%. Also, the “cellular viability after cultivation with compound alone” value in series [7] (50 μM, two passages of three days each) is listed as “no observable reduction in cellular viability”. In addition, the “susceptibility to subsequent doxorubicin treatment (synergy)” value in series [7] was “made the cells more susceptible to the subsequent treatment with doxorubicin”.
Consider `CCc1ccc(C(=O)NCC2(C(=O)N[C@H](Cc3c[nH]c4ccccc34)C(=O)NCC(N)=O)CC2)cc1` [Compound 30], for which, on DNMT2 [2], the “Fnorm (% displ.): FTAD displacement” value was determined as 5% and the “Fnorm (MST screening)” value is reported as 861.5. Further, at DNMT2 [3], the “ITC (KD)” value is reported as “n.b”.
As to `CCc1ccc(C(=O)NCC2(C(=O)NC(CC(=O)NCC(N)=O)Cc3ccc(C#N)cc3)CC2)cc1` (stereo not shown) [Compound 34], on DNMT2 [2], the “Fnorm (% displ.): FTAD displacement” value was 13% and the “Fnorm (MST screening)” value was 879.4. Besides, in series [6] (MOLM-13, 50 μM), the “m^5C reduction in tRNA” value is “no reduction of m^5C in tRNA”. Besides, the “susceptibility to subsequent doxorubicin treatment (synergy)” value in series [7] is “did not lead to a synergistic reduction in viability”.
With `CCc1ccc(C(=O)NCC2(C(=O)N[C@@H](CC(=O)NCC(=O)N(C)C)Cc3ccccc3)CC2)cc1` [Compound 47], on DNMT2 [2], the “Fnorm (% displ.): FTAD displacement” value amounted to 36% and the “Fnorm (MST screening)” value amounted to 901.0. Further, the “Papp (PAMPA)” value in series [5] is recorded as “failed to pass through the artificial membrane; also recorded: below detection limit”.
Regarding `CCc1ccc(C(=O)NCC2(C(=O)N[C@@H](CC(=O)NCC(=O)NCCOCCOCCOCCOC)Cc3ccccc3)CC2)cc1` [Compound 48], on DNMT2 [2], the “Fnorm (% displ.): FTAD displacement” value was found to be 27% and the “Fnorm (MST screening)” value is reported as 894.1.
In the case of `CCc1ccc(C(=O)NCC2(C(=O)N[C@@H](CC(=O)NCC(=O)O)Cc3ccccc3)CC2)cc1` [Compound 54], the “Papp (PAMPA)” value in series [5] is “failed to pass through the artificial membrane; also recorded: below detection limit”.
As to `Nc1ncnc2c1ncn2[C@@H]1O[C@H](CSCC[C@H](N)C(=O)O)[C@@H](O)[C@H]1O` [SAH, S-adenosylhomocysteine, reference compound], the “displacement of probe 6 from DNMT2 (FP)” value on DNMT2 [8] is reported as “able to displace probe 6”.
